# Experimental data: the Deep4Chem optical property database
# Assay: solvent given as SMILES
# [1] = in O=P(c1ccccc1)(c1ccccc1)c1ccccc1Oc1ccccc1P(=O)(c1ccccc1)c1ccccc1
structure (smiles),measurement,setting,value
c1ccc2c(c1)Oc1ccccc1N2c1ccc(-c2nnc(-c3ccc(N4c5ccccc5Oc5ccccc54)cc3)o2)cc1,fluorescence lifetime,in Cc1ccccc1,21.2 ns
same,fluorescence lifetime,[1],11.2 ns
COc1cc(OC)c2c(c1)C(=O)c1ccccc1-2,fluorescence lifetime,in C1CCCCC1,5.8 ns
same,fluorescence lifetime,in CC#N,0.9 ns
CCCCCCC(CCCCCC)n1c(=O)c2c3ccc4cccc5c6cccc7ccc(c2c1=O)c(c76)c3c45,fluorescence lifetime,in C1CCCCC1,10.5 ns
same,fluorescence lifetime,in CC#N,7.5 ns
same,fluorescence lifetime,in CC(C)=O,7.8 ns
same,fluorescence lifetime,in CCCCCC,9.5 ns
same,fluorescence lifetime,in CCO,6.5 ns
same,fluorescence lifetime,in CCOCC,9.6 ns
same,fluorescence lifetime,in CS(C)=O,7.7 ns
same,fluorescence lifetime,in Cc1ccccc1,9.2 ns
same,fluorescence lifetime,in ClC(Cl)(Cl)Cl,8.7 ns
same,fluorescence lifetime,in ClC(Cl)Cl,6.7 ns
Cc1ccc2c(c1)B(c1c(C(C)C)cc(C(C)C)cc1C(C)C)c1cc(C)cc3c1N2c1ccc(C)cc1B3c1c(C(C)C)cc(C(C)C)cc1C(C)C,fluorescence lifetime,in Cc1ccccc1-c1cccc(Oc2cc3c4c(c2)Oc2cc(-c5ccccc5C)ccc2B4c2ccc(-c4ccccc4C)cc2O3)c1,6.01 ns
COc1ccc2c(c1)N(c1ccccc1-c1ccccc1)c1cc3c(cc1=N2)Oc1c(cc(C(C)(C)C)cc1C(C)(C)C)N=3,fluorescence lifetime,in CCCCCC,0.45 ns
CN(C)c1ccc(-c2cc(-c3ccc4ccccc4c3)nc(-c3ccccc3)n2)cc1,fluorescence lifetime,in C1CCCCC1,2.9 ns
same,fluorescence lifetime,in CS(C)=O,1.6 ns
same,fluorescence lifetime,in ClC(Cl)Cl,2.4 ns
COC(=O)c1cc(=O)n(C)c2cc(-c3ccc(Oc4ccccc4)cc3)sc12,fluorescence lifetime,in ClCCl,2.83 ns
CC1=[N+]2C(=C(c3ccccc3C)c3ccc(C)n3[B-]2(F)F)C=C1c1cc2n(c1)[B-](F)(F)[N+]1=CC=CC1=C2c1c(C)cc(C)cc1C,fluorescence lifetime,in C1CCCCC1,2.84 ns
same,fluorescence lifetime,in CCOC(C)=O,0.81 ns
Cc1cc(C)c(C)c(-c2ccc3cc(C)c(=O)oc3c2)c1C,fluorescence lifetime,in C1CCCCC1,0.84 ns
same,fluorescence lifetime,in CC#N,1.07 ns
same,fluorescence lifetime,in CO,1.43 ns
CCCCCCCCCC[n+]1cc2ccc3c[n+](CCCCCCCCCC)cc4ccc(c1)c2c34,fluorescence lifetime,in CC#N,9.5 ns
CCCCCCOc1ccc(N(c2ccc(OCCCCCC)cc2)c2ccc(-c3sc(-c4ccc(N(c5ccc(OCCCCCC)cc5)c5ccc(OCCCCCC)cc5)cc4)c4nc(-c5ccc(OC)cc5)c(-c5ccc(OC)cc5)nc34)cc2)cc1,fluorescence lifetime,in CN(C)C=O,0.57 ns
O=C([O-])c1cc2c(ccc3ccccc32)oc1=O,fluorescence lifetime,in O,12.8 ns
Cn1nc(-c2ccccc2)c2n[nH]nc2/c1=N\c1ccccn1,fluorescence lifetime,in CC#N,0.33 ns
same,fluorescence lifetime,in CCO,0.44 ns
same,fluorescence lifetime,in Cc1ccccc1,0.34 ns
[NH3+]C(Cc1ccc(O)cc1)C(=O)[O-] (stereo unspecified),fluorescence lifetime,in O,3.27 ns
CN(C)c1ccc(C2=Cc3cc(Cl)nc[n+]3[B-](F)(F)O2)cc1,fluorescence lifetime,in C1CCOC1,2.6 ns
same,fluorescence lifetime,in CC#N,0.3 ns
same,fluorescence lifetime,in CCCCCC,1.9 ns
same,fluorescence lifetime,in Cc1ccccc1,2.3 ns
same,fluorescence lifetime,in ClC(Cl)Cl,2.5 ns
same,fluorescence lifetime,in ClCCl,2.8 ns
CC1(C)c2ccccc2N(c2ccc(-c3ccc4c(c3)c3cc(-c5ccc(N6c7ccccc7C(C)(C)c7ccccc76)cc5)ccc3c3nc(C#N)c(C#N)nc43)cc2)c2ccccc21,fluorescence lifetime,in O=P(c1ccccc1)(c1ccccc1)c1cccc(-c2cc(-n3c4ccccc4c4ccccc43)cc(-n3c4ccccc4c4ccccc43)c2)n1,53.6 ns
CCC1(CC)c2cc(B(c3c(C)cc(C)cc3C)c3c(C)cc(C)cc3C)ccc2-c2ccc(N(c3ccccc3)c3ccccc3)cc21,fluorescence lifetime,in C1CCOC1,2.5 ns
same,fluorescence lifetime,in CC#N,3.5 ns
same,fluorescence lifetime,in CC(C)=O,2.9 ns
same,fluorescence lifetime,in CCCCCC,1.6 ns
same,fluorescence lifetime,in CN(C)C=O,3.5 ns
same,fluorescence lifetime,in Cc1ccccc1,1.8 ns
same,fluorescence lifetime,in ClC(Cl)Cl,2.2 ns
CCC1(CC)c2cc(B(c3c(C)cc(C)cc3C)c3c(C)cc(C)cc3C)ccc2-c2c1c1c(c3c2C(CC)(CC)c2cc(B(c4c(C)cc(C)cc4C)c4c(C)cc(C)cc4C)ccc2-3)C(CC)(CC)c2cc(B(c3c(C)cc(C)cc3C)c3c(C)cc(C)cc3C)ccc2-1,fluorescence lifetime,in C1CCOC1,4.4 ns
C#CCN1C(=O)/C(=C/c2cc(OC(C)C)ccc2OC(C)C)N=C1C,fluorescence lifetime,in C1COCCO1,1.66 ns
same,fluorescence lifetime,in CC#N,2.22 ns
same,fluorescence lifetime,in CC(C)=O,2.17 ns
same,fluorescence lifetime,in CCCCCC,0.89 ns
same,fluorescence lifetime,in CCCCO,0.82 ns
same,fluorescence lifetime,in CCCO,0.85 ns
same,fluorescence lifetime,in CCO,1 ns
same,fluorescence lifetime,in CCOC(C)=O,1.5 ns
same,fluorescence lifetime,in CN(C)C=O,2.62 ns
same,fluorescence lifetime,in CO,1.1 ns
same,fluorescence lifetime,in CS(C)=O,3.03 ns
CC(C)(C)c1ccc(-c2c3c(c(-c4ccc(C(C)(C)C)cc4)c4cc5ccccc5cc24)Cc2c(c(-c4ccc(C(C)(C)C)cc4)c4cc5ccccc5cc4c2-c2ccc(C(C)(C)C)cc2)C3)cc1,fluorescence lifetime,in ClCCl,2.35 ns
Nc1ccc2c(-c3ccccc3C(=O)[O-])c3ccc(=[NH2+])cc-3oc2c1,fluorescence lifetime,in CC#N,4.03 ns
same,fluorescence lifetime,in CCO,4 ns
same,fluorescence lifetime,in CN(C)C=O,3.68 ns
same,fluorescence lifetime,in O,4.28 ns
N#Cc1c[nH]c2ccccc12,fluorescence lifetime,in C1CCOC1,3.1 ns
same,fluorescence lifetime,in C1COCCO1,3 ns
same,fluorescence lifetime,in CC#N,1.8 ns
same,fluorescence lifetime,in CS(C)=O,0.2 ns
CCCCCCCCC1(CCCCCCCC)c2ccccc2-c2ccc(-c3nnc(-c4ccc(-n5c6ccc(C(C)(C)C)cc6c6cc(C(C)(C)C)ccc65)cc4)o3)cc21,fluorescence lifetime,in Cc1ccccc1,1.7 ns
CC1(C)c2ccccc2N(c2cc[n+]3c(c2)-c2ccccc2O[B-]3(F)F)c2ccccc21,fluorescence lifetime,[1],6.2 ns
CN(C)c1ccc(/C=C/c2nc3c4ccccc4c4ccccc4c3o2)cc1,fluorescence lifetime,in CC#N,2.13 ns
NCCc1c[nH]c2ccc(O)cc12,fluorescence lifetime,in CC#N,4.1 ns
same,fluorescence lifetime,in CC(C)O,4.28 ns
same,fluorescence lifetime,in CO,4.04 ns
same,fluorescence lifetime,in O,3.94 ns
CN(C)c1ccccc1,fluorescence lifetime,in C1CCCCC1,3 ns
C[Si](C)(C)c1ccc(-c2ccc(-c3ccc(-c4ccc(-c5ccc([Si](C)(C)C)cc5)cc4)c4nsnc34)cc2)cc1,fluorescence lifetime,in C1CCOC1,5.4 ns
c1ccc(-c2nc(-c3nc(-c4ccccc4)c(-c4ccccc4)o3)oc2-c2ccccc2)cc1,fluorescence lifetime,in C1COCCO1,1.22 ns
Cc1c2ccc3c(C)[n+](C)ccc3c2cc[n+]1C,fluorescence lifetime,in CC#N,5.7 ns
CC1=CC(c2ccc3ccccc3c2)=[O+][B-]2(OC(=O)C(=O)O2)O1,fluorescence lifetime,in CC#N,18.8 ns
same,fluorescence lifetime,in ClC(Cl)(Cl)Cl,5.1 ns
F[B-]1(F)OC(c2ccc3c(c2)Cc2ccccc2-3)=CC(c2ccccc2)=[O+]1,fluorescence lifetime,in CC#N,2.6 ns
Cn1c(=O)c(/N=N/c2ccc(Nc3ccccc3)c(S(=O)(=O)O)c2)c(O)c2ccccc21,fluorescence lifetime,in CS(C)=O,0.05 ns
Cc1ccc(C2=Cc3c4ccccc4c4ccccc4[n+]3[B-](F)(F)O2)cc1,fluorescence lifetime,in ClC(Cl)Cl,0.706 ns
C(=C\c1c2ccccc2cc2ccccc12)/c1ccccc1,fluorescence lifetime,in CC1CCCCC1,3.6 ns
same,fluorescence lifetime,in CC#N,4.2 ns
C(=C\c1ccc(-c2ccncc2)cc1)/c1ccc(-c2ccncc2)cc1,fluorescence lifetime,in ClCCl,0.85 ns
Nc1ccc2ccc3cccc4ccc1c2c34,fluorescence lifetime,in C1CCCCC1,5.6 ns
O=C(O)c1ccc(-c2ccc(-c3nc(-c4ccccc4)c4ccccn34)cc2)s1,fluorescence lifetime,in CC#N,1.5 ns
CCN(CC)c1ccc2c(C(F)(F)F)cc(=O)oc2c1,fluorescence lifetime,in C1CCCCC1,4.1 ns
same,fluorescence lifetime,in CC#N,0.6 ns
same,fluorescence lifetime,in CCO,0.85 ns
same,fluorescence lifetime,in CCOC(C)=O,4.6 ns
same,fluorescence lifetime,in OCC(O)CO,2.7 ns
COc1cc(OC)c2c(c1)C(=O)c1cc(OC)cc(OC)c1-2,fluorescence lifetime,in C1CCCCC1,0.8 ns
CCOC(=O)/N=c1/oc2c(OC)cccc2cc1C#N,fluorescence lifetime,in ClCCl,0.3 ns
CC(=O)Nc1ccc2c3c(cccc13)C(=O)c1ccccc1-2,fluorescence lifetime,in CC#N,10.3 ns
same,fluorescence lifetime,in CC(C)=O,9.7 ns
same,fluorescence lifetime,in CC(C)O,9.3 ns
same,fluorescence lifetime,in CCCCOCCCC,1.9 ns
same,fluorescence lifetime,in CCOC(C)=O,6.6 ns
same,fluorescence lifetime,in CCOCC,2.6 ns
same,fluorescence lifetime,in CO,8.3 ns
same,fluorescence lifetime,in Cc1ccccc1,2.8 ns
same,fluorescence lifetime,in Clc1ccccc1,5.9 ns
same,fluorescence lifetime,in N#Cc1ccccc1,9.8 ns
same,fluorescence lifetime,in O=C1CCCCC1,8.3 ns
C1=CC2CC1C1C2[C@@]2(c3ccccc3)N=NC1(c1ccccc1)[C@@H]1C[C@H]12 (stereo partly specified),fluorescence lifetime,in CC#N,216 ns
O=[N+]([O-])c1cccc2c1ccc1[n+]2[B-](F)(F)n2c-1cc1c3ccccc3c3ccccc3c12,fluorescence lifetime,in ClCCl,2.67 ns
CCCCC(CC)CN1C(=O)C2=C(c3ccc(-c4ccc(C5=C6C(C)=CC(C)=[N+]6[B-](F)(F)n6c(C)cc(C)c65)cc4)s3)N(CC(CC)CCCC)C(=O)C2=C1c1cccs1 (stereo unspecified),fluorescence lifetime,in Cc1ccccc1,3.87 ns
CCCCCCC(CCCCCC)N1C(=O)c2cccc3c(-c4ccc(N(C)C)cc4)ccc(c23)C1=O,fluorescence lifetime,in CCCCCC,3.47 ns
same,fluorescence lifetime,in CCCCCCCCCCCCCC,3.61 ns
same,fluorescence lifetime,in CCCCCCCCCCCO,5.51 ns
same,fluorescence lifetime,in CCCCO,3.5 ns
same,fluorescence lifetime,in Cc1ccccc1,5.12 ns
same,fluorescence lifetime,in ClC(Cl)Cl,6.99 ns
CN(C)c1ccc(/C=C/c2ccc(-c3ccc(/C=C/c4ccc(N(C)C)cc4)s3)s2)cc1,fluorescence lifetime,in C1CCOC1,1.08 ns
same,fluorescence lifetime,in CC#N,1.12 ns
same,fluorescence lifetime,in CC(C)=O,1.11 ns
same,fluorescence lifetime,in CN(C)C=O,1.15 ns
same,fluorescence lifetime,in Cc1ccccc1,1.03 ns
C=Cc1cc2ccc(N(CC)CC)cc2oc1=O,fluorescence lifetime,in CC#N,2.84 ns
C(#Cc1ccccc1)C(C#Cc1ccccc1)=Cc1cccc(C=C(C#Cc2ccccc2)C#Cc2ccccc2)c1,fluorescence lifetime,in ClC(Cl)Cl,0.3 ns
Cc1c(OCC(=O)O)cc2c3c([nH]c2c1C)C(=O)CCC3,fluorescence lifetime,in C1COCCO1,0.54 ns
same,fluorescence lifetime,in CC#N,0.97 ns
same,fluorescence lifetime,in CCO,1.52 ns
same,fluorescence lifetime,in CS(C)=O,2.34 ns
same,fluorescence lifetime,in Cc1ccccc1,0.52 ns
same,fluorescence lifetime,in O,1.77 ns
CCc1c(C)c2n(c1C)[B-](F)(F)[N+]1=C(c3ccc[nH]3)c3ccccc3C1=C2,fluorescence lifetime,in ClCCl,6.41 ns
CN(C)c1ccc(/C=C/c2ccc(-c3nnc(-c4ccc(-c5cc6ccccc6s5)cc4)o3)cc2)cc1,fluorescence lifetime,in Cc1ccccc1,0.52 ns
same,fluorescence lifetime,in ClC(Cl)Cl,0.53 ns
C#CCNC1=C2C=C(c3cc4n(c3)[B-](F)(F)[N+]3=CC=CC3=C4c3c(C)cc(C)cc3C)C(C)=[N+]2[B-](F)(F)n2c(C)ccc21,fluorescence lifetime,in C1CCCCC1,2.3 ns
same,fluorescence lifetime,in CCOC(C)=O,0.58 ns
C[Si](C)(C)C#CC1=CC2=c3cc(C#C[Si](C)(C)C)c4nc(C(F)(F)C(F)(F)C(F)(F)F)nc5c(C#C[Si](C)(C)C)cc(c3c54)C3=CC(C#C[Si](C)(C)C)=C4N=C(C(F)(F)C(F)(F)C(F)(F)F)N=C1C4C32 (stereo unspecified),fluorescence lifetime,in C1CCOC1,2.1 ns
Cc1cc(C)n2c1C=C1c3ccccc3C(c3cccn3C)=[N+]1[B-]2(F)F,fluorescence lifetime,in ClCCl,6.91 ns
O=c1c2cccc3cccc(c32)c2nc3ccccc3n12,fluorescence lifetime,in ClCCl,11.1 ns
